Tests used:
[1] = tested on: HA; settings: cited from earlier work
[2] = tested on: IFV; settings: ref Matsubara et al., [2010]; cited from earlier work
Source text: The first step in the infection of cells by IFV is the binding of HA to sialic acid-containing glycoconjugates (Skehel and Wiley, [2000]). Human HA strains preferentially bind to the terminal sialylgalactose structure (Neu5Acα2−6Gal), whereas avian and equine strains bind to the corresponding Neu5Acα2−3Gal (Suzuki, [2005]).

[3] = tested on: IFV (H1N1, A/Puerto Rico/8/34); experiment: rRT-PCR quantification of IFV captured on membranes; type: binding, influenza virus A/Puerto Rico/8/34 (H1N1); settings: 1600 pfu incubated 1 h at 25°C; plastic plates; estimated from rRT-PCR standard curve (M gene, R^2 0.954)
Experimental: The pep-PE/DOPC (50:50) lipid monolayer was attached horizontally to plastic plates as described above. […] After washing with PBS, plates were incubated with AVL viral lysis buffer (QIAamp Viral RNA Mini Kit, QIAGEN) for 10 min. Viral RNA was extracted according to the manufacturer's instructions.
One-step RT-PCR was performed using QuantiTect SYBR Green PCR Kit (QIAGEN) with forward and reverse primers for the sequences of the matrix protein (M) gene for 244 bp (forward M30F2/08: 5′-[…] -3′; reverse M264R3/08: 5′-[…] -3′; Eisfeld et al., [2014]). The reaction was performed using a PikoReal Real-Time PCR system (TCR0096, Thermo Scientific). PCR was set up in a 10-μL reaction volume containing 5 μL of 2 × QuantiTect SYBR Green RT-PCR master mix, 0.1 μL of QuantiTect RT Mix, 0.5 μL of RNA template, 1 μL of forward and reverse primers (10 μM each), and 3.4 μL of RNase free water. […] Fluorescence was measured at the end of each cycle. […] A melting curve analysis consisted of 60°C for 30 s, and followed by a temperature increase to 95°C for 10 s with the continuous reading of fluorescence. The amplified products were analyzed by agarose gel electrophoresis (2.5% agarose) and detected by staining with ethidium bromide (Supplementary Figure 3A). […]

Neu5Acα2–3Galβ1–4Glcβ1–1′Cer [GM3]
HA binding to GM3 ([1]; ref Suzuki et al., [1986], Sato et al., [1996]): HA binds to GM3 through the sialyllactose structure

Ala-Arg-Leu-Pro-Arg
binding to receptor-binding site of HA ([1]; ref Matsubara et al., [2010]): binds to the receptor-binding site of HA by mimicking sialic acid | inhibition of IFV infection in cells [2]: exerts the inhibitory effects on IFV infection in cells

CCCCCCCC/C=C\CCCCCCCC(=O)OC[C@H](COP(=O)([O-])OCC[N+](C)(C)C)OC(=O)CCCCCCC/C=C\CCCCCCCC [DOPC, Dioleoylphosphatidylcholine]
amount of virus captured on the membrane [3]: 100 pfu

Source: paper PMC4823272 (Frontiers in Microbiology, 2016)
